The source of these data is patent US7101878B1 (Agouron Pharmaceuticals, Inc., priority 1998, dated 2006).

The target in the first assay is T1, human GnRH receptor (Homo sapiens, UniProt P30968).
T1 construct: expressed in transfected cells; host or cells: HEK 293 (hGnRH-R/293, from Dr. Stuart Sealfon)
T1 sequence (P30968 1-328): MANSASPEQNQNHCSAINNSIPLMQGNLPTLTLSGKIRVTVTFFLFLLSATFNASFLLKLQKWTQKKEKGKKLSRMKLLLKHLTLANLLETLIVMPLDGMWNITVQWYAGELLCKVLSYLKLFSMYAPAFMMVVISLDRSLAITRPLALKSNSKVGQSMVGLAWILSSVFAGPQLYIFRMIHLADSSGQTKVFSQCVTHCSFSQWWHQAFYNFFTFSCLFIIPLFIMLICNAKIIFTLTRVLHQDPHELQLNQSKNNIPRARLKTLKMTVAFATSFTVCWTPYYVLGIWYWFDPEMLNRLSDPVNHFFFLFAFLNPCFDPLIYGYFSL
The assay is described as follows: Radioligand binding, 125I-GnRH-A displacement, membranes of HEK 293 cells with human GnRH receptor. To be noted: 1 h, read-out: S%R 10 uM hGnRHR. The method, boiled down: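 Bound tracer was separated by filtration through polyethyleneimine-soaked GF/C filters and counted by liquid scintillation. IC50 from curve fitting; other species were tested under the same conditions.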
Consider `COc1cccc(OC)c1NC(=O)c1ccc(Cc2cc3c(cc2C)C(C)(C)CCC3(C)C)o1` [Compound 389], for which the remaining activity at 10 µM is 3%.

Staying with this assay, now noted: 1 h, substrate remaining; 1 uM compound; closer to zero = closer to 100% inhibition; read-out: S%R 1 uM hGnRHR.
Regarding `Cc1cc2c(cc1Cc1ccc(C(=O)NCc3cccnc3)o1)C(C)(C)CCC2(C)C` [Compound 400], the remaining activity at 1 µM is 28%. The same measure, in the same setting: in the case of `Cc1cc2c(cc1Cc1ccc(C(=O)NCCOCCO)o1)C(C)(C)CCC2(C)C` [Compound 401] it was 32%; in that of `Cc1cc2c(cc1Cc1ccc(C(=O)NCc3ccccc3)o1)C(C)(C)CCC2(C)C` [Compound 402], 18%. For the compound `Cc1cc2c(cc1Cc1ccc(C(=O)NC(c3ccccc3)C(O)c3ccccc3)o1)C(C)(C)CCC2(C)C` (centres unmarked) [Compound 403], the remaining activity at 1 µM stood at 44%. Consider `COc1ccccc1CNC(=O)c1ccc(Cc2cc3c(cc2C)C(C)(C)CCC3(C)C)o1` [Compound 404], for which the remaining activity at 1 µM stood at 13%. Still for that read-out and setting: then `Cc1cc2c(cc1Cc1ccc(C(=O)NCCc3ccccc3)o1)C(C)(C)CCC2(C)C` [Compound 405], with 40%; and `Cc1cc2c(cc1Cc1ccc(C(=O)NCCNc3ccccc3)o1)C(C)(C)CCC2(C)C` [Compound 406], with 30%. As for `Cc1cc2c(cc1Cc1ccc(C(=O)NCc3ccco3)o1)C(C)(C)CCC2(C)C` [Compound 407], the remaining activity at 1 µM came out at 20%. Still for that read-out and setting: in the case of `Cc1cc2c(cc1Cc1ccc(C(=O)NCc3ccccc3F)o1)C(C)(C)CCC2(C)C` [Compound 408] it was 16%. The same measure, in the same setting: then `Cc1cc2c(cc1Cc1ccc(C(=O)NCc3ccc(Cl)cc3)o1)C(C)(C)CCC2(C)C` [Compound 409], with 32%. Consider `COc1cccc(CNC(=O)c2ccc(Cc3cc4c(cc3C)C(C)(C)CCC4(C)C)o2)c1OC` [Compound 410], for which the remaining activity at 1 µM worked out at 21%.

As for `COc1ccc(CNC(=O)c2ccc(Cc3cc4c(cc3C)C(C)(C)CCC4(C)C)o2)cc1OC` [Compound 411], the remaining activity at 1 µM turned out to be 28%.

For `CCOc1ccccc1CNC(=O)c1ccc(Cc2cc3c(cc2C)C(C)(C)CCC3(C)C)o1` [Compound 412], the remaining activity at 1 µM stood at 49%. For `Cc1ccccc1CNC(=O)c1ccc(Cc2cc3c(cc2C)C(C)(C)CCC3(C)C)o1` [Compound 413], the remaining activity at 1 µM was 16%. For `COc1ccc(CNC(=O)c2ccc(Cc3cc4c(cc3C)C(C)(C)CCC4(C)C)o2)cc1` [Compound 414], the remaining activity at 1 µM came out at 10%. Same read-out and setting: then `Cc1cc2c(cc1Cc1ccc(C(=O)NCc3cccs3)o1)C(C)(C)CCC2(C)C` [Compound 415], with 18%.

For `Cc1cc2c(cc1Cc1ccc(C(=O)NCc3cccc(Cl)c3Cl)o1)C(C)(C)CCC2(C)C` [Compound 416], the remaining activity at 1 µM came out at 34%.

On to `Cc1cc2c(cc1Cc1ccc(C(=O)NCc3ccccc3Cl)o1)C(C)(C)CCC2(C)C` [Compound 417], for which the remaining activity at 1 µM worked out at 20%. Still for that read-out and setting: then `Cc1cc2c(cc1Cc1ccc(C(=O)NCCc3ccccc3Cl)o1)C(C)(C)CCC2(C)C` [Compound 418], with 42%; and `COc1ccccc1CCNC(=O)c1ccc(Cc2cc3c(cc2C)C(C)(C)CCC3(C)C)o1` [Compound 419], with 36%. For `Cc1cc2c(cc1Cc1ccc(C(=O)NC(CO)Cc3ccccc3)o1)C(C)(C)CCC2(C)C` (centres unmarked) [Compound 420], the remaining activity at 1 µM was 28%. With `Cc1cc2c(cc1Cc1ccc(C(=O)NCc3ccccc3Oc3ccccc3CO)o1)C(C)(C)CCC2(C)C` [Compound 421], the remaining activity at 1 µM amounted to 48%.

Take `Cc1cc2c(cc1Cc1ccc(C(=O)NCc3cccc4ccccc34)o1)C(C)(C)CCC2(C)C` [Compound 422]: the remaining activity at 1 µM came out at 34%.

Regarding `Cc1cc2c(cc1Cc1ccc(C(=O)NC(C)CCc3ccccc3)o1)C(C)(C)CCC2(C)C` (centres unmarked) [Compound 423], the remaining activity at 1 µM was 49%.

The same assay, now with this note: 1 h, substrate remaining; 10 uM compound; closer to zero = closer to 100% inhibition; read-out: S%R 10 uM hGnRHR.
As to `Cc1cc2c(cc1Cc1ccc(C(=O)Nc3ccccc3C)o1)C(C)(C)CCC2(C)C` [Compound 362], the remaining activity at 10 µM worked out at 1%.

Regarding `CSc1ccccc1NC(=O)c1ccc(Cc2cc3c(cc2C)C(C)(C)CCC3(C)C)o1` [Compound 363], the remaining activity at 10 µM worked out at 14%.

Take `Cc1cccc(NC(=O)c2ccc(Cc3cc4c(cc3C)C(C)(C)CCC4(C)C)o2)c1` [Compound 364]: the remaining activity at 10 µM came out at 21%. For the compound `Cc1cc2c(cc1Cc1ccc(C(=O)Nc3ccc4cn[nH]c4c3)o1)C(C)(C)CCC2(C)C` [Compound 365], the remaining activity at 10 µM was determined as 47%. For `CSc1ccc(NC(=O)c2ccc(Cc3cc4c(cc3C)C(C)(C)CCC4(C)C)o2)cc1` [Compound 366], the remaining activity at 10 µM came out at 37%. The same measure, in the same setting: then `Cc1cc2c(cc1Cc1ccc(C(=O)Nc3ccc4c(c3)OCO4)o1)C(C)(C)CCC2(C)C` [Compound 367], with 15%; and `Cc1cc2c(cc1Cc1ccc(C(=O)Nc3ccccc3C(=O)NCCCN3CCCC3=O)o1)C(C)(C)CCC2(C)C` [Compound 368], with 56%; and `Cc1cc2c(cc1Cc1ccc(C(=O)Nc3ncccc3O)o1)C(C)(C)CCC2(C)C` [Compound 369], with 11%.

With `Cc1cc2c(cc1Cc1ccc(C(=O)Nc3cccc([N+](=O)[O-])c3)o1)C(C)(C)CCC2(C)C` [Compound 370], the remaining activity at 10 µM is 37%. Turning to `Cc1cc2c(cc1Cc1ccc(C(=O)Nc3ccc(O)c([N+](=O)[O-])c3)o1)C(C)(C)CCC2(C)C` [Compound 371], the remaining activity at 10 µM stood at 55%. For the compound `Cc1cc2c(cc1Cc1ccc(C(=O)Nc3cc(CO)ccc3C)o1)C(C)(C)CCC2(C)C` [Compound 372], the remaining activity at 10 µM came to 1%. With `Cc1cc2c(cc1Cc1ccc(C(=O)Nc3c(C)cccc3O)o1)C(C)(C)CCC2(C)C` [Compound 373], the remaining activity at 10 µM was 19%.

For the compound `COC(=O)c1ccc(NC(=O)c2ccc(Cc3cc4c(cc3C)C(C)(C)CCC4(C)C)o2)cc1OC` [Compound 374], the remaining activity at 10 µM came to 13%. On to `CCc1ccc(C)nc1NC(=O)c1ccc(Cc2cc3c(cc2C)C(C)(C)CCC3(C)C)o1` [Compound 375], for which the remaining activity at 10 µM amounted to 16%.

For `Cc1cc2c(cc1Cc1ccc(C(=O)Nc3ccc(O)c(C)c3C)o1)C(C)(C)CCC2(C)C` [Compound 376], the remaining activity at 10 µM was 50%. `Cc1cc2c(cc1Cc1ccc(C(=O)Nc3ccc4c(=O)[nH][nH]c(=O)c4c3)o1)C(C)(C)CCC2(C)C` [Compound 377]: the remaining activity at 10 µM amounted to 39%. As for `COc1cccc(C)c1NC(=O)c1ccc(Cc2cc3c(cc2C)C(C)(C)CCC3(C)C)o1` [Compound 378], the remaining activity at 10 µM is -4%.

Take `Cc1cc2c(cc1Cc1ccc(C(=O)Nc3ncccc3C)o1)C(C)(C)CCC2(C)C` [Compound 379]: the remaining activity at 10 µM came to 4%.

As for `Cc1cc2c(cc1Cc1ccc(C(=O)Nc3ccc(O)c(Cl)c3)o1)C(C)(C)CCC2(C)C` [Compound 380], the remaining activity at 10 µM worked out at 29%. Take `COc1ccc(NC(=O)c2ccc(Cc3cc4c(cc3C)C(C)(C)CCC4(C)C)o2)cc1F` [Compound 381]: the remaining activity at 10 µM was 34%. Consider `Cc1cc2c(cc1Cc1ccc(C(=O)Nc3ccc4[nH]ncc4c3)o1)C(C)(C)CCC2(C)C` [Compound 383], for which the remaining activity at 10 µM was 7%.

As to `Cc1cc2c(cc1Cc1ccc(C(=O)Nc3ccccc3)o1)C(C)(C)CCC2(C)C` [Compound 384], the remaining activity at 10 µM came out at 21%. In the case of `COC(=O)c1cc(OC)c(OC)c(OO)c1NC(=O)c1ccc(Cc2cc3c(cc2C)C(C)(C)CCC3(C)C)o1` [Compound 386], the remaining activity at 10 µM came out at 27%. The same measure, in the same setting: in the case of `Cc1cc2c(cc1Cc1ccc(C(=O)Nc3cccc4c(=O)[nH][nH]c(=O)c34)o1)C(C)(C)CCC2(C)C` [Compound 387] it was 52%; in that of `Cc1cc2c(cc1Cc1ccc(C(=O)Nc3ccc(Br)c4ccccc34)o1)C(C)(C)CCC2(C)C` [Compound 388], 30%; in that of `COc1ccc(NC(=O)c2ccc(Cc3cc4c(cc3C)C(C)(C)CCC4(C)C)o2)c(Oc2ccc(Cl)cc2)n1` [Compound 391], 48%.

For the compound `CC(=O)c1cccc(NC(=O)c2ccc(Cc3cc4c(cc3C)C(C)(C)CCC4(C)C)o2)c1` [Compound 392], the remaining activity at 10 µM amounted to 0%. As for `COC(=O)c1ccc(NC(=O)c2ccc(Cc3cc4c(cc3C)C(C)(C)CCC4(C)C)o2)c(O)c1` [Compound 393], the remaining activity at 10 µM was determined as 44%. As to `Cc1cc2c(cc1Cc1ccc(C(=O)Nc3c(C)cccc3C(C)C)o1)C(C)(C)CCC2(C)C` [Compound 394], the remaining activity at 10 µM was determined as 57%. With `Cc1cc2c(cc1Cc1ccc(C(=O)Nc3c(Cl)cc(Cl)cc3C(F)(F)F)o1)C(C)(C)CCC2(C)C` [Compound 395], the remaining activity at 10 µM came to 40%. For `CC(=O)c1ccc(NC(=O)c2ccc(Cc3cc4c(cc3C)C(C)(C)CCC4(C)C)o2)cc1` [Compound 396], the remaining activity at 10 µM was 55%.

For the compound `Cc1cc2c(cc1Cc1ccc(C(=O)Nc3c(C)cccc3C)o1)C(C)(C)CCC2(C)C` [Compound 397], the remaining activity at 10 µM was determined as 43%. Turning to `CCc1cccc(C)c1NC(=O)c1ccc(Cc2cc3c(cc2C)C(C)(C)CCC3(C)C)o1` [Compound 399], the remaining activity at 10 µM was determined as 41%.

The same assay, now with this note: substrate remaining; 10 uM compound; closer to zero = closer to 100% inhibition.
Turning to `Cc1cc2c(cc1Cc1ccc(C(=O)Nc3ccc4c(=O)[nH][nH]c(=O)c4c3)o1)C(C)(C)CCC2(C)C` [Compound 385], the “S%R 10 uM hGnRHR” value was 41%.
